Results as given in patent US20200054651A1, “COMPOSITIONS AND METHODS FOR MODULATING PPP2R1A” (The Regents of the University of California, priority 2017, published 2020).

What was measured:
[1] = system: 231MFP breast cancer cells; experiment: 231MFP cell proliferation (Hoechst staining); format: cell-based; details: 100 μM, 48 h, 231MFP
[2] = target: T1, pure human PPP2R1A protein (Homo sapiens, UniProt P30153); experiment: Gel-based ABPP, competition against IAyne labeling; format: binding; details: 30 min at 37° C. pre-treatment, IAyne labeling
T1 construct: purchased Origene
Experimental: Gel-based ABPP methods were performed using the methods described in “Chem Biol 22(10), 1394-1405 (2015)” by Medina-Cleghorn D., et al. Recombinant pure human proteins were purchased from Origene. Pure proteins were pre-treated with DMSO, Withaferin A, or acrylamide or chloroacetamide compounds (e.g., DKM 2-90 or JNS 1-40) for 30 minutes at 37° C. in an incubation volume of PBS (50 μL), and were subsequently treated with IAyne (10 μM final concentration) for 30 minutes at room temperature. CuAAC was performed to append rhodamine-azide onto IAyne probe-labeled proteins. The samples were separated by SDS/PAGE and scanned using a ChemiDoc MP. Inhibition of target labeling was assessed by densitometry using ImageStudio Light software.

T1 sequence (P30153 whole entry): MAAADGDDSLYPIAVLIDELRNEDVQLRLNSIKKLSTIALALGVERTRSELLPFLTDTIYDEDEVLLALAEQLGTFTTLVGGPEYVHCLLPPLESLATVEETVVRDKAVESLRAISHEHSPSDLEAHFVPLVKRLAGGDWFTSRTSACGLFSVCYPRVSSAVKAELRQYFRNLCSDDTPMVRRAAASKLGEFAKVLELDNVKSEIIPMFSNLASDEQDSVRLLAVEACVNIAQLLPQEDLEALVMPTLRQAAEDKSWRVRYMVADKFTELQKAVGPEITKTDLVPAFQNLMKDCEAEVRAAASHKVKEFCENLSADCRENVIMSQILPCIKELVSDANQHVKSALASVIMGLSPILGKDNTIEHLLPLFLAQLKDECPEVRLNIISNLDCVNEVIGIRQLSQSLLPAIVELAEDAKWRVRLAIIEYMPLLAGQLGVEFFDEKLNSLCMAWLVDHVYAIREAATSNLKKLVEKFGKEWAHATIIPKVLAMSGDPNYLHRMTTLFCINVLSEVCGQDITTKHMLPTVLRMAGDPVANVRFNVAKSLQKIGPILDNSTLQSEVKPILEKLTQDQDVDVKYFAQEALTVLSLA

O=C(CCl)Nc1cccc2c1CCC2 [DKM 2-91]
cell proliferation [1]: lead compounds

O=C(CCl)Nc1ccc2c(c1)CCCC2 [JNS 1-37, 2-Chloro-N-(5,6,7,8-tetrahydronaphthalen-2-yl)acetamide]
IC50 [2]: 300 µM
